In paper PMC9814687, “Controlling oncogenic KRAS signaling pathways with a Palladium-responsive peptide” (Communications Chemistry, 2022):

Legend:
A549 cells = assay: Cell internalization by fluorescence microscopy; assay type: cell-based; settings: for cellular internalization (intracellular TMR fluorescence), in words: A549 cells, 10 µM, 30 min at 37 °C, DMEM with 5% FBS, washed with PBS, fluorescence microscopy
Method: (§1) All steps were performed on a sterile clean bench Telstar AV-100 at rt. Solutions stored in a fridge were warmed beforehand in a water bath (37 °C). Unless otherwise specified, all incubations were performed in DMEM containing 5% of fetal bovine serum (FBS-DMEM). Cell Culture: A549 cell line was cultured in DMEM (Dulbecco´s modified Eagle´s medium), 5 mM glutamine, penicillin (100 units/mL) and streptomycin (100 units/mL), all from Invitrogen. Proliferating cultures were maintained in a 5% CO2 humidified incubator at 37 °C. For all the experiments, cells were seeded in the corresponding well at the indicated concentration 2 days before treatment. A549 cells were seeded on glass-bottom plates 48 h (150.000 cell/ml) before treatment. […] (10 µM) were added. The metallopeptide was made just before the addition to cells by pre-incubating with metal complexes (1:1) in water for 10 min. After 30 min of incubation with cells, these were washed twice with PBS and replaced with fresh FBS-DMEM to observe under the microscope with adequate filters. Digital pictures of the different samples were taken under identical conditions of gain and exposure. A549 cells were seeded on glass-bottom plates (150.000 cell/ml) 48 h before treatment. […] After two washes with PBS, the cells were lysed in Laemmli buffer containing Tris pH 6,8 1 M, Glycerol, SDS, Bromophenol Blue, and β-mercaptoethanol, and heated at 95 °C for 10 min. The samples were separated by SDS-12.5% polyacrylamide gel and transferred to nitrocellulose membrane, to probed by Western blotting. […] The visualization was performed with ChemiDoc MP imaging system by Biorad, and the processing of the images and densitometry quantification was carried out with ImageLab program.
All images were obtained with an Andor Zyla mounted on a Nikon TiE. LED excitation wavelength 550 nm. Filter cube TRITC-B-000 (Semrock): BP 543/22 nm, […] 593/40 nm, and DM 562 nm. Images were further processed with Image J.

[1] = test system: phospho-ERK1/2 in serum-starved A549 cells; assay: Inhibition of ERK1/2 phosphorylation (Western blot, densitometry); assay type: cell-based; settings: 4 h, Western blot with pERK antibodies
Method: as §1

[2] = Circular dichroism (α-helical content); assay type: physicochemical; settings: 10% TFE, 25 °C
Method: Circular Dichroism was measured on a Jasco-715 coupled with a thermostat Nestlab RTE-111 using a 2 mm Hellma cuvette at 25 °C and the following settings: Acquisition range, 300-195 nm; band width, 2.0 nm; resolution, 0.2 nm; accumulation, 5 scans; sensitivity, 10 mdeg; response time, 0.25 s; speed, 100 nm/min. The spectra are the average of 5 scans and were processed using the “smooth” macro in the program KaleidaGraph (v 3.5 by Synergy Software).
Circular Dichroism. Circular Dichroism was measured on a Jasco-715 coupled with a thermostat Nestlab RTE-111 using a 2 mm Hellma cuvette at 25 °C and the following settings: Acquisition range, 300 -195 nm; band width, 2.0 nm; resolution, 0.2 nm; accumulation, 5 scans; sensitivity, 10 mdeg; response time, 0.25 s; speed, 100 nm/min. The spectra are the average of 5 scans and were processed using the “smooth” macro in the program KaleidaGraph (v 3.5 by Synergy Software).
Fig S3. Left: CD titration experiment.
5 and 10 equivalents of cis-PdCl2(en). The experiments were carried out in 10 mM phosphate buffer pH 7.5, 100 mM of NaCl and 10% TFE, 25 °C. Mean residue molar ellipticity ([ Θ]MRE) was calculated considering the peptide as an 18-mer.
(1 picture or pasted object on this page, not shown here)

HeLa cells = assay: MTT toxicity assay; settings: long incubation (24 h), up to 100 µM
Method: cells as follows: 100,000 cells per well were seeded in 96 well plates two days before treatment with different
concentrations of the peptides/metal. After 24 h of incubation, HEPES containing 3-(4,5-dimethylthiazol-2-
yl)-2,5-diphenyl tetrazolium bromide (MTT) was added to the cell culture medium to a final concentration of
0.5 mg/ml. Cells were then incubated for 4 h to allow the formation of formazan precipitates by metabolically
active cells. A detergent solution of 10% SDS (sodium dodecyl sulphate) and 0.01 M HCl was then added,
and the plate was incubated overnight at room temperature to allow the solubilization of the precipitates.
The quantity of formazan in each well (directly proportional to the number of viable cells) was measured by
recording changes in absorbance at 570 nm in a microtiter plate reading spectrophotometer (Tecan Infinite
Toxicity assay. HeLa cells were incubated with peptide, metallopeptide and palladium at
different concentrations, for 24 h at 37 °C. Then, the cells were washed two time with PBS before carry ing
out the MTT assay. Data are mean +/- SEM for experimental repeated in two independent times.

Row | Compound | cellular internalization (intracellular TMR fluorescence), in words (A549 cells) | levels of ERK phosphorylation, in words [1] | mean residue molar ellipticity at 222 nm ([2]; CD, 20 µM peptide, 10 mM phosphate buffer pH 7.5, 100 mM NaCl, calculated for an 18-mer, metallopeptide 30 min after 1 eq. cis-PdCl2(en)) | cell viability in MTT assay, in words (HeLa cells) | cell localization by fluorescence microscopy (A549 cells; cells incubated with the metallopeptide, authors' reply to reviewers) | α-helical content ([2]; from CD band at 222 nm, 20 µM peptide + 1 eq. cis-PdCl2(en), 10 mM phosphate pH 7.5, 100 mM NaCl)
1 | TMR-Ahx-RRFFGIHLTNHLKTEEGN [αH-His2] | rather poor internalization | failed to induce changes | ≈ −2200 deg cm^2 dmol^−1 | – | – | –
2 | NCCN.[Cl][Pd][Cl] [cis-PdCl2(en), reference compound] | – | failed to induce changes | – | remains high | – | –
3 | CC[C@H](C)[C@H](NC(=O)CNC(=O)[C@H](Cc1ccccc1)NC(=O)[C@H](Cc1ccccc1)NC(=O)[C@H](CCCNC(=N)N)NC(=O)[C@H](CCCNC(=N)N)NC(=O)CCCCCNC(=O)c1ccc2c(c1)C(=O)OC21c2ccc(N(C)C)cc2Oc2cc(N(C)C)ccc21)C(=O)N[C@@H](Cc1c[nH]cn1)C(=O)N[C@@H](CC(C)C)C(=O)N[C@H](C(=O)N[C@@H](CC(N)=O)C(=O)N[C@@H](Cc1c[nH]cn1)C(=O)N[C@@H](CC(C)C)C(=O)N[C@@H](CCCCN)C(=O)N[C@H](C(=O)N[C@@H](CCC(=O)O)C(=O)N[C@@H](CCC(=O)O)C(=O)NCC(=O)N[C@@H](CC(N)=O)C(N)=O)[C@@H](C)O)[C@@H](C)O [αH-His2[Pd]] | intense intracellular fluorescence signal | significant decrease | – | – | endosomal localization | about 22%
